According to patent publication US20060160174A1, “Modified l49-sfv exhibiting increased stability and methods of use thereof” (priority 2002, published 2006):

System: H3677 melanoma cells
Experiment: in vitro cytotoxicity assay with prodrug C-Mel (alamarBlue)
Format: cell-based
Conditions: Homo sapiens
Protocol: H3677 cells were plated into 96 well microtiter plates (5×10^3 cells/well in 100 μl of RPMI 1640 media (Invitrogen) with 10% fetal bovine serum) and allowed to adhere overnight. The cells were treated with FP95, FP990 or FP999 fusion (see Table 2) proteins at 10 nM. […] Melphalan was also added at the same concentrations to cells treated with medium alone. After 1 hour at 37° C. cells were washed three times with medium and incubated for 96 hours at 37° C. The cells were then incubated with 10% alamarBlue™ for 3 hours at 37° C. and excitation was measured in an ELISA plate reader at 570 nm.
The cells were treated with 10 nM L49-sFv-bL, unbound material was washed off and serial dilutions of C-Mel were added. C-Mel and the active drug, melphalan, were also applied to cells treated with media alone. Cell viability was measured using the redox indicator alamarBlue™.

Compound: N[C@@H](Cc1ccc(N(CCCl)CCCl)cc1)C(=O)O [melphalan]
- IC50: ~5 µM
